For data set [1], the system named is Salmonella typhimurium TA 98, TA 100, TA 1535, TA 1537; Escherichia coli WP2 uvrA. Description: Reverse-mutation Ames test / Bacterial Reverse Mutation Test. The settings on record: with and without metabolic activation. The source says: The mutagenic activity of MI-883 was detected using the commercially available Muta-ChromoPlate bacterial strain kit (ebpi, Mississauga, Ontario, Canada), which is a 96-well microplate version of the reverse-mutation Salmonella typhimurium Ames test with S9 rat-liver extract. Salmonella typhimurium tester strains TA 98 (detection of frameshift mutagens) and TA 100 (detection of base-exchange mutations) were used as we described before^1.
Consistently, Bacterial Reverse Mutation Test was performed as a service at Research Institute for Organic Syntheses Inc., (Pardubice, Czech Republic) in Salmonella typhimurium strains TA 98, TA 100, TA 1535, TA 1537, and one indicator Escherichia coli WP2 uvrA strains. The report is available after request.

For the next data set, the target named is mouse Car (Mus musculus, UniProt O35627). Description: Luciferase reporter gene assay mouse Car, HepG2. For orientation: Reporter assays use an easily measured gene product as a stand-in for the process of interest.
For another data set, the target named is T1, Human recombinant CYP3A4 (Homo sapiens, UniProt P08684).
T1 construct: purchased Promega; host or cells: baculovirus-infected insect cells
Description: CYP450-Glo CYP3A4 enzymatic activity assay. Format: biochemical. Particulars: for Inhibition assays, CYP3A4 activity (replicates): log[Agonist]. An excerpt: Data are presented as means±S.D. from three independent measurements.

The test system of another data set is HepaRG KO CAR cells. Description: RT-qPCR mRNA expression in HepaRG KO CAR cells. Format: cell-based, human.
A further data set relates to rats. Description: Repeated dose 28-day oral toxicity study in rats (OECD 407, non-GLP). Type of data set: in vivo. Particulars: up to 10 mg/kg. On the procedure: (§1) A repeated dose 28-day oral toxicity study in Rats (Non–GLP Study) was carried out according to OECD Guideline for Testing of Chemicals No. 407 and relevant Test Facility SOPs at the Institute of Physiology, Academy of Sciences, Czech Republic as a service. The report is available after request. […] No clinical changes were observed during the administration period or the recovery period in the two selected groups. […]

Experiment in data set [2]: as above
Type of data set: in vivo. Particulars: rat, in vivo, 10 mg/kg; 28 days per os, rats. The method, then: as §1

Data set [3] deals with humanized PXR-CAR-CYP3A4/3A7 mice. Description: Bile acid analysis in plasma, liver and stool (HFD study). Type of data set: in vivo, mouse. The method, then: Materials and reagents and sample preparation have been described in our last paper[63] (see Supplementary, Chapter 12). Concentrations of bile acids in plasma, bile, and feces were determined using the UHPLC-MS method. The bile acids separation was conducted on the ACQUITY UPLC I-Class System (Waters, Milford, MA, USA) using a Triart C18 column (50 mm × 2.1 mm ID, 1.9 µm) from YMC, Japan. The column was maintained at 45 °C and was safeguarded by a disposable CrudCatcher in-line filter (Phenomenex, Torrance, CA, USA). The mobile phase flowed at a rate of 0.35 mL/min and consisted of solvent A (0.5 mmol/L ammonium acetate, 0.001% v/v acetic acid in water) and solvent B (0.5 mmol/L ammonium acetate, 0.001% v/v acetic acid in a 3:1 v/v mixture of methanol and acetonitrile). The gradient program followed this sequence. […] This was succeeded by an isocratic washout with 95% (v/v) solvent B from 9.0 to 10.5 min, followed by equilibration with 40% (v/v) solvent B from 10.5 to 12 min. 2 μL of sample were injected into column. Column effluent was monitored with Xevo TQ-XS triple quadrupole detector operated in positive electrospray mode. Further details can be found in the publication by Uher et al.[72].
The processing of the UHPLC-MS data was performed using TargetLynx software (Waters, Milford, MA, USA). The ratio of an analyte’s peak area and the internal standard was evaluated against a calibration curve, and the concentration for each bile acid was calculated. For further data analysis, the concentrations of individual BAs were summed to calculate the concentration of conjugated, unconjugated, 12-OH, non-12-OH, and total bile acids.
To cover a wide concentration range of bile acids, two sets of plasma aliquots were prepared. The first set, with a volume of 10 μL, was diluted tenfold with MilliQ water. The second set, with a volume of 100 μL, was used without dilution, and the subsequent procedure remained identical for both sets. […]

Values joined by “and” are separate entries in the source; they are usually repeats but may differ in a detail not shown here. Identical values can stand only once. “Also recorded” adds a separate entry of the source.

mouse Car, sequence (O35627 whole entry): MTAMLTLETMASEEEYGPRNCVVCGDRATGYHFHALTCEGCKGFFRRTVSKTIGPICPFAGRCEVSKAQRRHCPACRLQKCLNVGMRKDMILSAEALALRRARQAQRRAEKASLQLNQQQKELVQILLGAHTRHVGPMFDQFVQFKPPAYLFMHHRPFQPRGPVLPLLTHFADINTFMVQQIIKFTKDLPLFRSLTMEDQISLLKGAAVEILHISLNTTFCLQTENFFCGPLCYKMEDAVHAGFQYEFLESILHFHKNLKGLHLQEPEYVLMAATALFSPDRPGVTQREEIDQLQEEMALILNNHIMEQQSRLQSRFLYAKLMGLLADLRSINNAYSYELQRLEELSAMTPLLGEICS
T1 sequence (P08684 whole entry): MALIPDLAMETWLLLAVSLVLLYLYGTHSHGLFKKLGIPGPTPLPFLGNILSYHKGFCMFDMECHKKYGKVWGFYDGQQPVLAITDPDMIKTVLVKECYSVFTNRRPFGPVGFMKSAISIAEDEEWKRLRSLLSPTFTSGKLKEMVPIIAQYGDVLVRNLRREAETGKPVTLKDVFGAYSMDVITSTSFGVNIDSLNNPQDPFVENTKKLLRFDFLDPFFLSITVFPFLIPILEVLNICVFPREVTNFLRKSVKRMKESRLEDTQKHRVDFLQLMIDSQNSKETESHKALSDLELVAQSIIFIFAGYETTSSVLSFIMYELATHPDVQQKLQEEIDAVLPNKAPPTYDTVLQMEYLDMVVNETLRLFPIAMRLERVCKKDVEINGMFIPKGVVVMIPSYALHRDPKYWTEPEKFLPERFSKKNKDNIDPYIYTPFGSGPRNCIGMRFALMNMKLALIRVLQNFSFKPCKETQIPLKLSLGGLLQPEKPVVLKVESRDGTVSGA
Description for HepaRG KO CAR cells: HepaRG cells from Biopredic (Rennes, France) were cultivated and differentiated on the 12-well plates. […] Several batches of HepaRG KO CAR (CAR Knockout HepaRG™ Cells, MTOX1012-1VL, RRID:CVCL_B6AA) and PXR Knockout HepaRG™ Cells, MTOX1011-1VL, RRID:CVCL_B6AS) cells have been obtained from Sigma-Aldrich/Merck (Darmstadt, Germany) and cultivated according to the provider’s protocols. […] Experiments with HepaRG KO PXR and HepaRG KO CAR cells have been performed in duplicates at least in two independent experiments.
RT-qPCR was used to examine gene expression in 2D and 3D PHH, HepaRG cells, or in mouse liver or intestine (ileum) samples as we have described before[60]–[62].
All qRT-qPCR experiments including Trizol reagent (Life Technologies) total RNA isolation, reverse-transcription using a random hexaprimer, and the MMLV Reverse Transcriptase Kit (ThermoFisher Scientific) we have described before^19. qPCR was performed using TaqMan Fast Advanced Master Mix with TaqMan probes (ThermoFisher Scientific). […] The delta-delta method was used for gene expression quantification normalized to at least two reference genes. Three technical replicates were used for each reaction considering the MIQE guidelines. Data are presented as fold induction to vehicle-treated cells/animals.
Description for mouse Car: The luciferase reporter gene assays for FXR, LXRα, LXRβ, THα, GRα, PPARα, PPARδ/β, PPARγ, AhR, VD, ERα, ERβ and mouse Car are described in our recent paper[19]
The mouse Car expression vector pCMV6-mCar (NM_009803) was obtained from OriGene Technologies, Rockville, MD, USA).
Gal4-LBD constructs of tested nuclear receptors have been used together with pGL4.31[luc2P/GAL4UAS/Hygro] luciferase reporter construct and pRL-TK Renilla expression vector (both from Promega, Hercules, USA) in HepG2 cells transfected with Lipofectamine 2000 or 3000 reagents. For GRα and FXR receptors, full-length expression vectors have been used with pGRE-luc or pFXRE-luc luciferase constructs. For the aryl hydrocarbon receptor (AhR), p1A1-luc construct was used with only pRL-TK vector for transfection normalization. A dual reporter assay (Promega, Hercules, USA) was used to analyze both firefly and Renilla luciferase activities.
Gal4-LBD constructs of tested nuclear receptors have been used together with pGL5-luc luciferase reporter construct and pRL-TK Renilla expression vector in HepG2 cells transfected with Lipofectamine 2000 or 3000 reagents. For GRα and FXR receptors, full-length expression vectors have been used with pGRE-luc or pFXRE-luc luciferase constructs. For the aryl hydrocarbon receptor (AhR), p1A1-luc construct was used with only pRL-TK vector for transfection normalization. […] Bars represent means±S.D. (n=3).

What is called NOAEL is the highest dose or exposure tested at which no adverse effect was seen. On to `NC(=O)c1cc(Cn2cc(-c3c(-c4ccc(Cl)cc4)nc4cc(F)ccn34)nn2)ccc1Cl` [MI-883, 2-chloro-5-((4-(2-(4-chlorophenyl)-7-fluoroimidazo[1,2-a]pyridin-3-yl)-1H-1,2,3-triazol-1-yl)methyl)benzamide], for which the genotoxicity / mutagenicity result in data set [1] is listed as “not genotoxic; also recorded: nonmutagenic”. Moreover, on mouse Car, the “NRs assays: mCar (relative to ctrl, replicates)” value was 1.15 and 1.36 and 1.11. Besides, at Human recombinant CYP3A4, the “inhibition of CYP3A4 activity” value is listed as “weak inhibitor”. In addition, the “Inhibition assays, CYP3A4 activity (replicates)” value at Human recombinant CYP3A4 (M 0) is 106 and 134; at Human recombinant CYP3A4 (M 0.5) it was 69 and 79 and 81; on Human recombinant CYP3A4 (M 1), 66 and 67 and 61; at Human recombinant CYP3A4 (M -0.5), 128 and 118 and 132; at Human recombinant CYP3A4 (M -1), 126 and 125 and 123; on Human recombinant CYP3A4 (M -2) it was 89 and 124. The “Inhibition assays, CYP3A4 activity (replicates)” value at Human recombinant CYP3A4 (M -2.5), on Human recombinant CYP3A4 (M -3), on Human recombinant CYP3A4 (M -3.5), on Human recombinant CYP3A4 (M -4) and at Human recombinant CYP3A4 (M -4.5) was 100 each time. Further, the “CYP7A1 mRNA in HepaRG KO CAR cells” value in the data set with HepaRG KO CAR cells was “induced”. In addition, in the data set with HepaRG KO CAR cells (Phenobarbital 500 μM, CITCO 1 μM, MI 883 1 μM, ctrl = 1), the “CYP2B6 mRNA, RT-qPCR, HepaRG KO CAR (Fig. 1f), replicates” value is 0.55 and 0.6 and 0.76. Besides, the figures for the “toxicity in 28-day oral study in rats” value in the data set with rats and in the data set on rats (listed as MI833) were “no toxicity” and “No clinical signs of toxicity”, respectively. The NOAEL at 28 days in data set [2] is more than 10 mg/kg. In addition, the “total BA content in the stool after 24 h” value in data set [3] is “significant increase”. Moreover, in data set [3], the “total bile acid concentration in plasma and livers” value is recorded as “not affected”. The “βMCA and CDCA in the stool” value in data set [3] is “significant (P < 0.05) increase”.
